In patent publication US20260297060A1, “COMPOUNDS FOR THE DEGRADATION OF MUTANT BRAF” (C4 THERAPEUTICS, INC., priority 2023, published 2026) one finds concentration data, which are given here for two compounds.

What all share (assay type): in vivo, BALB/c nude mice
Data set [1] in a line: Example 6 pharmacokinetics assay for PKPD study (plasma, tumor, liver). The note with it: mouse, po, single dose. On the procedure: For the pharmacokinetic/pharmacodynamic (PKPD) study, compounds were tested in the A375 human melanoma xenografts. Known BRAF inhibitors encorafenib, and dabrafenib were used as positive controls. Encorafenib, dabrafenib, Compound 83, Compound 93, Compound 70, and Compound 54 were administered to BALB/c nude mice bearing A375 tumors on PG-D1 and dosed orally (PO) once. Encorafenib was dosed at 35 mg/kg. Dabrafenib was dosed at 100 mg/kg. Compound 83, Compound 93, Compound 70, and Compound 54 were dosed at 10 mg/kg. The plasma and tumor samples were collected at 1, 6, 12 and 24 hours, and liver samples were collected at 6 hours and 12 hours post the single dose. This study was non-GLP study.
(§1) The plasma samples were collected at predetermined time points for PK analysis. The mice were euthanized at predetermined time points post the treatment. The blood samples were collected into the 1.5 mL Eppendorf tubes containing 15 μL of 0.5 M EDTA-K2. And then the anticoagulant blood samples were centrifuged at 2,500 g at 4° C. for 15 minutes. The plasma samples were separated into 2 aliquots. The 1st was used for PK analysis, and the 2nd served as backup. The samples were stored at −80° C. before bioanalysis.
The tumor samples were collected at predetermined time points for PK and WB analysis (B-RAF and p-ERK). The tumor was dissected out and split into 3 parts. The 1st part was used for PK analysis, the 2nd part was used for WB analysis and the last one served as backup for study. The samples were transferred into pre-labeled tubes and quickly froze in liquid nitrogen within 2 minutes after dissection. The samples were stored at −80° C. before bioanalysis.
(§2) Liver samples were collected at predetermined time points for PK analysis. The left lobe of the liver was dissected out and split into 2 parts. The 1st part was used for PK analysis and the 2nd part served as the backup for the study. The samples were transferred into pre-labeled tubes and quickly froze in liquid nitrogen within 2 minutes after dissection. The samples were stored at −80° C. before bioanalysis.
For PKPD study, the harvested plasma, tumor and liver were processed for pharmacokinetics analysis by LC/MS/MS with a concentration range of 0.5-1000 ng/mL for Encorafenib and Dabrafenib in plasma, 0.05-100 ng/mL for Encorafenib and Dabrafenib in tumor, 0.2-200 ng/mL for Encorafenib and Dabrafenib in liver, 2.0-2000 ng/mL for compound 93, compound 83, compound 54 and compound 70 in liver, 50.0-50000 ng/mL for compound 83 and compound 70 in plasma, 0.5-1000 ng/mL for compound 83 and compound 70 in tumor, 1.0-2000 ng/mL for compound 93 in plasma, 10.0-20000 ng/mL for compound 54 in plasma, 0.5-500 ng/mL for compound 93 and compound 54 in tumor.

Data set [2] in a line: Example 7 pharmacokinetics assay for efficacy study (plasma, liver). The following applies: mouse, po, 100 mg/kg, p.o., QD × 14 days. On the procedure:
For efficacy study, agents were tested in the A375 human melanoma xenografts. Compound 118, Compound 156, and Compound 180 were administered to BALB/c nude mice bearing A375 xenografts from day 0 and dosed p.o. twice per day (BID). Compound 141 was administered from day 0 and dosed p.o. twice per day (BID) or dosed p.o. daily (QD) from day 1. Compound 141, Compound 118, Compound 156, and Compound 180 were dosed at 10 mg/kg for 14 days. The known BRAF inhibitor Dabrafenib was used as a positive control. Dabrafenib was administered from day 1 and dosed p.o. daily (QD) for 14 days and dosed at 100 mg/kg.
as §1, §2
The harvested plasma and liver samples were processed for pharmacokinetics analysis by LC-MS/MS with a concentration range of 0.500~500 ng/mL for Dabrafenib in plasma and liver homogenate, 20.0~20,000 ng/mL for Compound 141, Compound 180 and Compound 118 in plasma and liver, 10.0~10,000 ng/mL for Compound 156 in plasma and liver.

The nature of data set [3]: Example 6 pharmacokinetics assay for efficacy study (plasma, liver). The following applies: mouse, po, p.o., QD × 21 days. On the procedure:
For efficacy study, compounds were tested in the A375 human melanoma xenografts. Known BRAF inhibitors encorafenib, and dabrafenib were used as positive controls. Encorafenib and dabrafenib were administered to BALB/c nude mice bearing A375 tumors on PG-D1 and dosed PO daily (QD) for 3 weeks. Encorafenib was dosed at 35 mg/kg. Dabrafenib was dosed at 100 mg/kg. Compound 83, Compound 93, Compound 70, and Compound 54 were administered to BALB/c nude mice bearing A375 tumors on PG-DO and dosed PO twice per day (BID) for 3 weeks. Compound 83, Compound 93, Compound 70, and Compound 54 were dosed at 10 mg/kg.
as §1, §2
For efficacy study, the harvested plasma and liver were processed for pharmacokinetics analysis by LC/MS/MS with a concentration range of 2.00-2000 ng/mL for Encorafenib and Dabrafenib in plasma, 0.20-200 ng/mL for Encorafenib and Dabrafenib in liver, 50.0-50000 ng/mL for compound 83 and compound 70 in plasma, 20.0-20000 ng/mL for Compound 93 and Compound 54 in plasma, 5.00-5000 ng/mL for compound 93, compound 83, compound 70 and compound 54 in liver.

Where [4] appears, read: liver, 100 mg/kg, read-out: Concentration in Liver (mean ± SEM).
The mark [5] stands for this setting: plasma, 100 mg/kg, read-out: Concentration in Plasma (mean ± SEM).
[6] abbreviates: tumor, 100 mg/kg, read-out: Concentration in Tumor (mean ± SEM).
[7] abbreviates: liver, 35 mg/kg, read-out: Concentration in Liver (mean ± SEM).
Setting [8] is: plasma, 35 mg/kg, read-out: Concentration in Plasma (mean ± SEM).
Where [9] appears, read: tumor, 35 mg/kg, read-out: Concentration in Tumor (mean ± SEM).

The structures appear in SMILES notation. Where two headings read alike, the source gives them in different places.

Regarding `CC(C)(C)c1nc(-c2cccc(NS(=O)(=O)c3c(F)cccc3F)c2F)c(-c2ccnc(N)n2)s1` [Dabrafenib, dabrafenib, reference compound], the concentration at 6 h was determined as 157 ± 12.3 ng/g in data set [1] (setting [4]); 46.2 ± 5.05 ng/mL in data set [1] (setting [5]); 32.8 ± 0.26 ng/g in data set [1] (setting [6]); 195 ± 32.1 ng/g in data set [2] (liver, read-out: Concentration in Liver (mean ± SEM)); 80.5 ± 17.3 ng/mL in data set [2] (plasma, read-out: Concentration in Plasma (mean ± SEM)); 216 ± 30.8 ng/g in data set [3] (setting [4]). Also, the concentration at 6 h in data set [3] (setting [5]) is 86.1 ± 15.4 ng/mL. For the same compound, the concentration at 12 h in data set [1] (setting [4]) stood at 19.2 ± 5.84 ng/g; in data set [1] (setting [5]), 6.74 ± 2.73 ng/mL; in data set [1] (setting [6]), 9.59 ± 1.68 ng/g. In addition, the concentration at 1 h was 276 ± 17.2 ng/mL in data set [1] (setting [5]) and 225 ± 29.2 ng/g in data set [1] (setting [6]). For the same compound, the concentration at 24 h amounted to 0.725 ± 0.11 ng/mL in data set [1] (setting [5]) and 1.34 ± 0.369 ng/g in data set [1] (setting [6]).
Turning to `COC(=O)N[C@@H](C)CNc1nccc(-c2cn(C(C)C)nc2-c2cc(Cl)cc(NS(C)(=O)=O)c2F)n1` [Encorafenib, encorafenib, reference compound], the concentration at 6 h came to 375 ± 82 ng/g in data set [1] (setting [7]); 654 ± 169 ng/mL in data set [1] (setting [8]); 135 ± 22.8 ng/g in data set [1] (setting [9]); 481 ± 272 ng/g in data set [3] (setting [7]); 992 ± 559 ng/mL in data set [3] (setting [8]). Also, the concentration at 12 h was 12.6 ± 5.14 ng/g in data set [1] (setting [7]), 17.3 ± 7.09 ng/mL in data set [1] (setting [8]) and 18.1 ± 7.47 ng/g in data set [1] (setting [9]). Further, the concentration at 1 h in data set [1] (setting [8]) amounted to 5720 ± 493 ng/mL; in data set [1] (setting [9]) it was 1250 ± 161 ng/g. The concentration at 24 h in data set [1] (setting [8]) came to 0.895 ng/mL; in data set [1] (setting [9]) it was 2.63 ± 0.386 ng/g.
